Tested on: HIV-1 (NL4-3) viral release in HeLa cells
Assay: HIV-1 viral release in HeLa cells transfected with NL4-3 (p24 antigen assay)
Format: cell-based
Settings: HeLa cells expressing NL4-3
Description: HeLa cells at 50% confluency in P25 flasks were transiently transfected with 2-3 μg of one of the HIV-1 proviral constructs (pNL4-3; pNL4-3/Udel). One-tenth of the culture media was retrieved from each sample and filtered through a 0.22-μm syringe filter at each time point. Cells were collected at the end and subjected to whole-cell lysis by 1% SDS. The viral content in culture media and in cell lysates was determined by Coulter HIV-1 p24 Antigen Assay kit. Virus release was compared to that from the control (co-transfection of pNL4-3 and pCGI). Data are expressed as mean±SEM from 8 independent experiments.
For the inhibitory effects of K2P channel, different quantities (0.02-10 μM) of arachidonic acid (Sigma) were tested in HeLa cell culture at the 24th hour post-transfection of NL4-3, and one-tenth of the media was retrieved and filtered at each time point. Viral release was compared to that of the untreated HeLa cell set at 100% (control).
Referring to FIG. 3, the inhibitory effects of HIV-1 viral release in HeLa cells at the 4th hour after arachidonic acid (AA) supplementation were shown. […] Moreover, 50-60% of the release inhibition could be achieved by AA at 0.5×10^−7˜10^−6 M.

Structure (SMILES): CCCCC/C=C\C/C=C\C/C=C\C/C=C\CCCC(=O)O [AA, arachidonic acid]
- release inhibition (HIV-1 viral release) (4th hour after AA supplementation, AA at 0.5×10^−7˜10^−6 M, untreated HeLa cell set at 100%): 50-60%
- suppression of viral release (submicromolar concentrations, 4th hour after supplementation): could suppress viral release
